What was measured:
L 929 cells = assay: Confocal fluorescence imaging of L 929 cells stained with 3-HF probes; format: cell-based
Method: FIG. 1: (a) Formula and location of 3-HF probes of the prior art F and F2N8 and of the probe of the invention F2N12S in phospholipid bilayers (a). Confocal fluorescence images of L 929 cells stained with probes F (b), F2N8 (c) and F2N12S (d). All images were obtained by collecting fluorescence in the 585-700 nm wavelength range 10 min after probe addition. Scale bar, 10 μm (b).
The cells were washed twice by HBSS before each experiment to eliminate fetal bovine serum. In sorting experiments, cells were resuspended in the binding buffer and labeled with the annexin V-FITC kit. For fluorescence measurements with the probe of the invention F2N12S (fluorometry, flow cytometry and confocal microscopy), cells were resuspended in HBSS with 0.1 μM F2N12S. Then, the cell suspension was placed in a shaker bath for 10 min in the incubator. The staining pattern of the cells was checked with a Confocal Imaging System MRC-1024 (BioRad) to ascertain that fluorescence originates from the plasma membrane.
For collecting cell images, a Laser Scanning Confocal Imaging System MRC-1024 (Bio-Rad) was used. […] Collected images were analyzed by the Amira 3.0 software.
Confocal laser microscopy have been performed on adherent L 929 cells stained with these first generation molecules (FIG. 1.b, c). The obtained fluorescence images reveal a rapid penetration of these dyes inside the cells. […]

HeLa cells = assay: Flow cytometry F2N12S intensity ratio in HeLa cells; format: cell-based; details: data not shown
Text: (§1) The probe of the invention F2N12S has been combined with PI and the fluorescence intensities of PI have been represented as a function of the T*/N* ratio of F2N12S (FIG. 6c). In this case, the populations of apoptotic and dead cells are clearly discriminated by using the differences in the PI intensities. […] This conclusion was further strengthened when the populations discriminated by the F2N12S/PI couple were colored according to their response with the annexin V-FITC/PI couple (FIG. 6d).

T lymphoblastoid cells = assay: Flow cytometry analysis with annexin V-FITC, PI and F2N12S; format: cell-based, human
Text: FIG. 6: Flow cytometry analysis of T lymphoblastoid cells treated by actinomycin D. Cells were stained by annexin V-FITC, PI and F2N12S. In (a), Annexin V-FITC and PI were selectively excited at 488 nm. Cells are sorted into living, dead and apoptotic cell populations. In (b), F2N12S is selectively excited at 407 nm. Living cells are discriminated from apoptotic and necrotic cells. In (c), the PI fluorescence intensities are plotted versus the T*/N* ratio of F2N12S. Living cells are in green, apoptotic cells are in cyan and dead cells are in orange. In (d), the populations sorted using the F2N12S/PI couple were colored according to their response with the annexin V/PI couple. The wavelengths of maximal transmission and bandwidths of used filters are indicated in brackets.
FIG. 7: Comparison of the intensiometric response of annexin V-FITC (a) with the ratiometric fluorescence response of F2N12S (b). Living, dead and apoptotic cells were identified as described in FIG. 6, by using either the annexin V-FITC/PI (a) or the F2N12S/PI (b) couple of dyes.
FIG. 8: Comparison of the response of annexin V-FITC and F2N12S on non-treated T lymphoblastoid cells stained by annexin V-FITC, PI and F2N12S. In (a), annexin V-FITC and PI were selectively excited at 488 nm. In (b), F2N12S is selectively excited at 407 nm. Cells are sorted into living and dead cell populations.
Human lymphoid CEM T cells were cultured in X-vivo 15 medium (Cambrex, France) at 37° C. in humidified 5% CO2 atmosphere. Cell viability was checked by trypan blue exclusion. Cells were seeded at 5×10^5 cells/ml in the presence or absence of actinomycin D (0.5 μg/ml) for 18 h. Cells were pelleted by centrifugation at 1500 rpm for 5 min and resuspended at 1×10^6 cells/ml in X-vivo 15 medium for experiments.
For the validation of F2N12S in cell cytometry, we used a FASCARIA™ (cell sorter) (BD Biosciences, CA, USA) equipped with an argon laser (488 nm) and a diode laser (407 nm) and emission filters DF30, DF42 and DF20 centered at 530 nm, 585 nm and 610 nm, respectively. The optical pathways corresponding to the argon laser and to the diode laser are independent. Data were analyzed using the FACSDIVA™ (cell sorter) Software (BD Biosciences). The granulation, size and fluorescence intensity were recorded at a rate of ˜1000 cells per second.
T lymphoblastoid cells were treated with actinomycin D and labeled simultaneously by FITC-labeled annexin V, propidium iodide (PI) and F2N12S. […] The emissions of FITC and PI were collected in the spectral regions of 515-545 nm and 600-620 nm, respectively. […] The emission light in this case was collected in two spectral regions: at 515-545 nm to monitor the emission of the N* band and 564-606 nm to collect the emission of the T* band (FIG. 6b). […] The second one is characterized by a high N*/T* intensity ratio (shown in red) and can be assigned to apoptotic and dead cells.
as §1

[1] = actinomycin D-treated cells, probe combined with PI

Q: Which results are given for “1-dodecanaminium, N-[[2-[4-Diethylaminophenyl]-3-hydroxychromon-6-yl]-methyl]-N-methyl-N-(3-sulfopropyl)-, inner salt [F2N12S]”?
A: time the probes stay in the plasma membrane (whole observation time) (L 929 cells; L 929 cells in HBSS buffer, limited by lifetime of the cells): approx. 1 hour; location of probe fluorescence in stained cells (L 929 cells; adherent L 929 cells, images 10 min after probe addition, 585-700 nm): emission exclusively from the plasma membranes; F2N12S intensity ratio values compared with T lymphoblastoid cells (HeLa cells): very similar; percentage of apoptotic cells (T lymphoblastoid cells; [1]): 19.5%; percentage of dead cells (T lymphoblastoid cells; [1]): 48%; percentage of living cells (T lymphoblastoid cells; [1]): 32.5%; percentage of dead cells (T lymphoblastoid cells; non-treated T lymphoblastoid cells): 5%
